One experiment deals with cisplatin-induced emesis. Description: Cisplatin-induced emesis in dogs (antiemetic). Type of experiment: in vivo, dog. The following applies: for inhibition in vivo at 1 mg/kg: Canis lupus familiaris, iv, 5 h, read-out: % inhibition of cisplatin-induced emesis. The method, then: The procedure used to test compounds of the present invention for antiemetic properties is a modification of the method of Gylys et al, Res. Commun, Chem. Pathol. Pharm., 23, 61(1979).
Adult, mongrel, unfasted dogs of both sexes were randomly assigned into treatment groups, with each treatment group consisting of four dogs. On the dosing day all dogs were given cisplatin, 3.0 mg/kg, intravenously. Sixty minutes later, the dogs in the control treatment group were given deionized water, 0.1 ml/kg intravenously. The dogs in the test group were given a test compound at an appropriate dose intravenously. All doses were administered as a solution by means of a syringe and needle, and each dog's emetic episodes were recorded for 5 hours after the administration of cisplatin.

In the next experiment the test system is gastric emptying. Description: Gastric emptying of a test meal in fasted rats. Type of experiment: in vivo. To be noted: fasted rat, 9.0 mg/kg IP 30 min before test meal; measured 60 min after the meal. The procedure: The procedure used to test compounds of the present invention for gastric motility enhancing activity was that of Droppleman et al, J. Pharmacol. Methods, 4, 227(1980). Each animal was dosed intraperitoneally (9.0 mg/kg) with a test compound or control. After 30 minutes each animal was given 3 ml of a methylcellulose-based test meal formulation. Sixty minutes after administration of the test meal, each animal was killed by cervical dislocation, and the stomach was removed and weighed. The stomach was cut open, rinsed and dried, and reweighed. The difference between the full and empty weights (amount of meal remaining in stomach) was subtracted from the original test meal weight to determine the meal amount emptied from the stomach during the test period.

Experiment [1] has as its system 5-HT (serotonin)-induced contractions of the guinea pig ileum. Description: Blockade of serotonin-induced contractions of guinea pig ileum (5-HT antagonist activity). Type of experiment: cell-based. To be noted: 10^-6 M serotonin.
For experiment [2], the system named is exploratory light/dark behavior. As to the kind of experiment: Anxiolytic model, two-compartment exploratory light/dark test in mice. Type of experiment: in vivo. To be noted: mouse, 10 mg/kg IP, 5 minute period; vehicle control 29. An excerpt:
The method has been described by Young and Johnson, Soc. Neurosci. Abs., 1988, 14, 207 and is a modification of the procedures described by Costall and Naylor, Brit. J. Pharmacol. 1988, 93, 985-993; and Crawley, Pharmacol. Biochem. and Behav. 1981, 15, 695-699. A two compartment light-dark activity monitoring device (Digiscan Model RXWZCM16, Omnitech Electronics,Inc., Columbus, Ohio) is used. A 90W light source located 30 cm above the box provides light to the apparatus. Behavioral testing was conducted in a sound attenuated, darkened room illuminated with a red light (25W red bulb) only.
Each animal (mouse) received a dose of either the test, reference, or control article. The mouse was placed at the center of the illuminated area and its behavioral activity tallied over a 5 minute period by use of a Digiscan analyzer. Behavioral variables recorded include: the time spent in the lit and dark areas, the number of rearings in the lit and dark areas, the number of locomotor activity counts in the lit and dark areas, the number of transitions between the lit and dark or dark and lit areas, rearing time in the lit and dark areas, the latency to make the first transition from the lit to the dark areas, locomotor time in the lit and dark areas, and resting time in the lit and dark areas. Appropriate statistical analyses for each measure were performed. […]

The subject of another experiment is emesis. To be noted: reported by Mikhlina et al, Khim-Farmastsevt. Zh. 10 (1976); cited from earlier work.
Another experiment concerns dopamine D2 -receptor. To be noted: reported in USSR Pat. No. SU-414-261; cited from earlier work.

`COc1cc(N)c(Cl)cc1C(=O)NC1C2CCN(CC2)C1CN1CCCC1` (stereo not drawn) [VI, 4-Amino-5-chloro-2-methoxy-N-[2-(1-pyrrolidinylmethyl)-1-azabicyclo[2.2.2]oct-3-yl]benzamide]: in the experiment on cisplatin-induced emesis, the inhibition in vivo at 1 mg/kg was found to be 87%. Also, the “% change in meal emptied” value with gastric emptying was “+33%”.
On to “2-(1-Piperidinylmethyl)-1-azabicyclo[2.2.2]oct-3-yl 1-methyl-1H-indole-3-carboxylate cis isomer [XIII (cis isomer)]”, for which, in the experiment with cisplatin-induced emesis (dog, 1.0 mg/kg IV given 60 min after cisplatin 3.0 mg/kg IV, emetic episodes recorded for 5 hours), the “% inhibition of cisplatin-induced emesis” value came to 34%.
On to `COc1cc(N)c(Cl)cc1C(=O)NC1C2CCN(CC2)C1CN1CCCCC1` (stereo not drawn) [Example IV, 4-Amino-5-chloro-2-methoxy-N-[2-(1-piperidinylmethyl)-1-azabicyclo[2.2.2]oct-3-yl]benzamide], for which the inhibition in vivo at 1 mg/kg in the experiment on cisplatin-induced emesis was 94%. The “pA2 against serotonin-induced contractions” value in experiment [1] came to 6.6.
Turning to `COc1cc(N)c(Cl)cc1C(=O)NC1C2CCN(CC2)C1CN1CCOCC1` (stereo not drawn) [XI, 4-Amino-5-chloro-2-methoxy-N-[2-(4-morpholinylmethyl)-1-azabicyclo[2.2.2]oct-3-yl]benzamide], in the experiment with cisplatin-induced emesis, the inhibition in vivo at 1 mg/kg amounted to 21%.
On the same count and under the same terms, in the case of `CNc1cc(OC)c(C(=O)NC2C3CCN(CC3)C2CN(C)C)cc1Cl` (stereo not drawn) [III, 5-Chloro-N-[2-[(dimethylamino)methyl]-1-azabicyclo[2.2.2]oct-3-yl]-2-methoxy-4-(methylamino)benzamide] it was 73%.
Turning to `CNc1cc(OC)c(C(=O)NC2C3CCN(CC3)C2CN2CCCCC2)cc1Cl` (stereo not drawn) [Example V, 5-Chloro-2-methoxy-4-(methylamino)-N-[2-(1-piperidinylmethyl)-1-azabicyclo[2.2.2]oct-3-yl]benzamide], in the experiment with cisplatin-induced emesis, the inhibition in vivo at 1 mg/kg was determined as 99%. Further, the “% Time Spent In Lit Area” value in experiment [2] is given as 51%.
Consider `COc1cc(N)c(Cl)cc1C(=O)NC1C2CCN(CC2)C1CN(C)C` (stereo not drawn) [Example I, 4-Amino-5-chloro-N-[2-[(dimethylamino)methyl]-1-azabicyclo[2.2.2]oct-3-yl]-2-methoxy-benzamide], for which the inhibition in vivo at 1 mg/kg in the experiment with cisplatin-induced emesis was 96%. Besides, in the experiment with gastric emptying, the “% change in meal emptied” value is recorded as “+36%”.
`COc1ccc(S(N)(=O)=O)cc1C(=O)NC1CN2CCC1CC2` (stereo not drawn) [5-aminosulfonyl-N-(1-azabicyclo-[2.2.2]oct-3-yl)-2-methoxybenzamide]: the anti-emetic activity result in the experiment on emesis is listed as “not to have anti-emetic activity”. In addition, in the experiment on dopamine D2 -receptor, the neuroleptic activity result is recorded as “neuroleptic activity”.
For `CSCCOc1cc(N)c(Cl)cc1C(=O)NC1C2CCN(CC2)C1CN(C)C` (stereo not drawn) [II, 4-Amino-5-chloro-N-[2-[(dimethylamino)methyl]-1-azabicyclo[2.2.2]oct-3-yl]-2-[2-(methylthio)ethoxy]benzamide], the inhibition in vivo at 1 mg/kg in the experiment with cisplatin-induced emesis amounted to 47%.
As to `CNc1cc(OC)c(C(=O)NC2C3CCN(CC3)C2CN2CCCC2)cc1Cl` (stereo not drawn) [VII, 5-Chloro-2-methoxy-4-(methylamino)-N-[2-(1-pyrrolidinylmethyl)-1-azabicyclo[2.2.2]oct-3-yl]benzamide], the inhibition in vivo at 1 mg/kg in the experiment with cisplatin-induced emesis came out at 87%.

Values taken from US5273972A, “[(2-diakylaminomethyl)-3-quinuclidinyl]-benzamides and benzoates” (priority 1992, dated 1993).
